Like-named read-outs stand apart in the source and are kept apart here.
How the values were obtained:
[1] = system: women with dramatic vasomotor hot flashes and sleep disruption; experiment: Clinical study of six women with vasomotor hot flashes and sleep disruption, symptoms graded 0-4; format: in vivo; conditions: for effect on vasomotor / hot flash symptoms (in words) / effect on sleep (in words): six women, agent alone; for effect on vasomotor / hot flash symptoms (in words): versus untreated; for Hot Flash Severity: grade 0-4 (duration), average of six women; for Hot Flash Frequency: end of treatment period (up to four weeks), ropinirole 4 mg, tizanidine 4 mg, clonidine 0.1 mg, rotigotine 1 mg, pramipexole 1.5 mg, chlorpromazine 25 mg, haloperidol 1 mg, venlafaxine 75 mg, paroxetine 20 mg, gabapentin 300 mg, pregabilin 50 mg
Description: Patients were on each regimen at the doses cited for up to four weeks.
Symptoms were evaluated on a scale from 0 to 4, with 0 being not affected, 1 being mild, 2 being moderate, 3 being severe, and 4 being a very severe expression of either vasomotor symptom frequency, severity, sweating, falling asleep and waking during the night for each patient and evaluated at the end of the treatment period. The findings reported are based on an average of the reported symptoms of the six women studied.
Specifically, regarding hot flash frequency, evaluation was based upon the number of hot flashes per day. The frequency of hot flashes was graded on a scale of 0-4, with 0 as none detected, 1 as 1-4/day (mild), 2 as 5-8/day (moderate), 3 as 9-12/day (severe), and 4 as more than 12/day (very severe).
The severity of the hot flashes, reflecting hot flash duration, was also graded on a scale of 0-4, with 0 being not detected, 1 being mild (less than 1 minute), 2 moderate (1-2 minutes), 3 severe (2-3 minutes), and 4 very severe (greater than 4 minutes). This evaluation reflects the duration and intensity as rated by the individual.
The sweating response was graded on a scale of 0-4 as well, with 0 being not detected, 1 being mild (minimally moist skin), 2 moderate (moisture of the skin), 3 severe (noticeable perspiration, hair, ears, neck, chest), and 4 very severe (soaking sweat).
Falling asleep was also graded on a scale of 0-4, with 0 being no issue (less than 15 minutes), 1 being mild (15-20 minutes), 2 moderate (20-40 minutes), 3 severe (40-60 minutes), and 4 very severe (greater than 60 minutes).
Wakings were graded on a scale of 0-4 as well, with 0 being not detected, 1 being mild (1-5 wakings/night), 2 moderate (5-10 wakings/night), 3 severe (10-15 wakings/night), and 4 very severe (greater than 15 wakings/night).
The D2 receptor family (D2, D3 or D4) agonists ropinirole, rotigotine and pramipexole were examined, and contrasted with D2 receptor family antagonists chlorpromazine or haloperidol. Ropinirole and pramipexole were evaluated alone and with either alpha-2-adrenergic agonist tizanidine or clonidine.
Venlafaxine, paroxetine, gabapentin, and pregabilin were also evaluated in comparison with tizanidine.

[2] = system: women with menopausal symptoms including hot flashes; conditions: for hot flashes under existing medication: already treated for neuropathic pain and depression; for benefit in sleep cycle: standard sedative hypnotics for insomnia
Description: The patients were treated by escalating the dose of ropinirole to 4 mg, testing the hypothesis of a dopaminergically regulated pathway within the central nervous system which impacts hot flashes.
Therefore, the initial dose provided was 1 mg at bedtime, and the dose was raised as needed, every fourth day, to a maximum of 8 mg, if needed, usually at bedtime.
Safety monitoring included making certain there were no issues with liver function, low blood pressure or unusual dreams as this was accomplished. Tizanidine could, if needed, be dosed again during the night without causing a morning “hangover” effect providing there was a four hour sleep window available.
Ropinirole titration was initiated with 0.25 mg at bedtime, and if tolerated, by escalating the dose by 0.25 mg every fourth day to a maximum of 1 mg (i.e., 0.25 mg, 0.50 mg, 0.75 mg, 1 mg), until there was reduction in both the frequency and severity of hot flashes. If higher doses were needed, then both 1 mg, or later 2 mg and both 1 and 2 mg ropinirole tablets were used along with the continued titration by 0.25 mg steps every fourth day until a maximum of 4 mg was reached.

[3] = system: women with menopausal vasomotor symptoms and sleep disruption; experiment: Clinical study of eight women with menopausal vasomotor symptoms and sleep disruption, symptoms graded 1-4; format: in vivo; conditions: for effect on vasomotor symptoms (in words) / effect on sleep (in words): eight women; for effect on sleep (in words): agent alone; for Hot Flash Frequency / Sweating / Wakings / Falling Asleep / Hot Flash Severity: grade 1-4, average of eight women, ropinirole 4 mg, tizanidine 4 mg, ramelteon 8 mg; for Hot Flash Frequency: at bedtime for at least four weeks; for Hot Flash Frequency / Falling Asleep / Hot Flash Severity: untreated = 4; for Sweating / Wakings / Falling Asleep / Hot Flash Severity: at least four weeks; for Sweating / Wakings: untreated = 3
Description: Patients were on each regimen at the doses cited for at least four weeks.
Symptoms were evaluated on a scale from 1 to 4, with 1 being mild, 2 being moderate, 3 being severe, and 4 being a very severe expression of either vasomotor symptom frequency, severity, sweating, falling asleep and wakings during the night were evaluated for each patient and evaluate at the end of the treatment period. The findings were based on an average of the reported symptoms of the eight women studied.
Specifically with respect to hot flash frequency, evaluation was based upon the number of hot flashes per day. The frequency of the hot flashes was graded on a scale of 1-4, with 1 as 1-4/day (mild), 2 as 5-8/day (moderate), 3 as 9-12/day (severe), and 4 as more than 12/day (very severe).
The severity of the hot flashes was graded on a scale of 1-4, with 1 being mild (less than 1 minute), 2 moderate (1-2 minutes), 3 severe (2-3 minutes), and 4 very severe (greater than 4 minutes). This evaluation reflects the duration and intensity as rated by the individual.
The sweating response was graded on a scale of 1-4, with 1 being mild (minimally moist skin), 2 moderate (moisture on skin), 3 severe (noticeable perspiration, hair, ears, neck, chest), and 4 very severe (soaking sweat).
Falling asleep was graded on a scale of 1-4, with 1 being mild (15-20 minutes), 2 moderate (20-40 minutes), 3 severe (40-60 minutes), and 4 very severe (greater than 60 minutes).
Wakings were graded on a scale of 1-4, with 1 being mild (1-5 wakings/night), 2 moderate (5-10 wakings/night), 3 severe (10-15 wakings/night), and 4 very severe (greater than 15 wakings/night).

[4] = system: hot flashes, including vasomotor symptoms of menopause; experiment: Observed activity of D2 family agonists tested in controlling hot flashes; format: in vivo; conditions: D2 family members tested to date
[5] = up to four weeks, untreated = 3
[6] = grade 0-4, average of six women, untreated = 3
[7] = patients of the case studies, ropinirole escalated from 0.25 mg to 4 mg at bedtime

## CN(C)CCCN1c2ccccc2Sc2ccc(Cl)cc21 [Chlorpromazine, chlorpromazine]
[1]
  effect on vasomotor / hot flash symptoms (in words): aggravated menopausal symptoms

## Clc1cccc(Cl)c1N=C1NCCN1 [Clonidine, clonidine]
[2]; patient two
  hot flashes under existing medication: developed these hot flash symptoms despite those medications
[1]
  effect on sleep (in words): impressive effect on sleep
  effect on vasomotor / hot flash symptoms (in words): very modest reduction in vasomotor symptoms

## NCC1(CC(=O)O)CCCCC1 [Gabapentin, gabapentin]
[2]; patient two
  hot flashes under existing medication: developed these hot flash symptoms despite those medications
[1]
  effect on vasomotor / hot flash symptoms (in words): reduced hot flash symptoms over untreated patients

## O=C(CCCN1CCC(O)(c2ccc(Cl)cc2)CC1)c1ccc(F)cc1 [Haloperidol, haloperidol]
[1]
  effect on vasomotor / hot flash symptoms (in words): aggravated menopausal symptoms

## Fc1ccc([C@@H]2CCNC[C@H]2COc2ccc3c(c2)OCO3)cc1 [Paroxetine, paroxetine]
[1]
  effect on vasomotor / hot flash symptoms (in words): reduced hot flash symptoms over untreated patients

## CCCN[C@H]1CCc2nc(N)sc2C1 [Pramipexole]
[1]; [5]
  Hot Flash Severity: 0
[1]; [6]
  Hot Flash Frequency: 0

## CC(C)C[C@H](CN)CC(=O)O [Pregabilin, pregabalin]
[1]
  effect on vasomotor / hot flash symptoms (in words): reduced hot flash symptoms over untreated patients

## CCC(=O)NCC[C@@H]1CCc2ccc3c(c21)CCO3 [Ramelteon, ramelteon]
[3]
  effect on vasomotor symptoms (in words): no impact on vasomotor symptoms
  effect on sleep (in words): only a limited impact on sleep
  Hot Flash Frequency: 4 (4 as more than 12/day (very severe))
  Sweating: 3
  Wakings: 3 (3 severe (10-15 wakings/night))
  Falling Asleep: 3 (3 severe (40-60 minutes))
  Hot Flash Severity: 4 (4 very severe (greater than 4 minutes))

## CCCN(CCC)CCc1cccc2c1CC(=O)N2 [Ropinirole, ropinirole]
[2]; patient one, ropinirole 4 mg daily at bedtime with tizanidine 8 mg
  side effects: without side effects
[2]; patient one, ropinirole 4 mg daily at bedtime with tizanidine 8 mg at bedtime, 15-20 hot flashes per day before
  vasomotor symptoms (hot flashes): totally eliminated the vasomotor symptoms (hot flashes)
[2]; patient three, ropinirole removed (symptoms returned) and re-administered at 4 mg
  hot flashes on re-administration after removal: the hot flashes once again disappeared
[2]; patient two, ropinirole 4 mg at bedtime with tizanidine 8 mg
  side effects: without untoward side effects
[2]; patient two, ropinirole 4 mg at bedtime with tizanidine 8 mg at bedtime, 10-15 hot flashes per day before
  frequency and severity of hot flashes: complete resolution of the frequency and severity of the hot flashes
[2]; [7]
  effect on hot flashes of menopause: dramatic shutdown of previously intolerable hot flashes of menopause
  side effects: without side effects
[1]; [5]
  Hot Flash Severity: 0
[1]; [6]
  Hot Flash Frequency: 0
[1]
  effect on sleep (in words): limited impact on sleep
  effect on vasomotor / hot flash symptoms (in words): notable reduction in frequency and severity of vasomotor symptoms
[3]
  effect on vasomotor symptoms (in words): notable, but incomplete reduction in frequency and severity of vasomotor symptoms
  effect on sleep (in words): limited impact on sleep
  Hot Flash Frequency: 1 (1 as 1-4/day (mild))
  Sweating: 1
  Wakings: 3 (3 severe (10-15 wakings/night))
  Falling Asleep: 3 (3 severe (40-60 minutes))
  Hot Flash Severity: 1 (1 being mild (less than 1 minute))
[4]
  activity in controlling hot flashes: unique activity

## CCCN(CCc1cccs1)[C@H]1CCc2c(O)cccc2C1 [Rotigitine, rotigotine]
[1]; [5]
  Hot Flash Severity: 0
[1]; [6]
  Hot Flash Frequency: 0
[1]; grade 0-4, average of six women, up to four weeks, untreated = 2
  Falling Asleep: 0 (0 being no issue (less than 15 minutes))
[1]; grade 0-4, average of six women, up to four weeks, untreated = 3
  Sweating: 0
[1]; grade 0-4, average of six women, up to four weeks, untreated = 4
  Wakings: 1 (1 being mild (1-5 wakings/night))
[1]
  effect on sleep (in words): limited impact on sleep
  effect on vasomotor / hot flash symptoms (in words): notable reduction in frequency and severity of vasomotor symptoms
[4]
  activity in controlling hot flashes: unique activity

## Clc1ccc2nsnc2c1NC1=NCCN1 [Tizanidine, tizanidine]
[2]; patient one, tizanidine 8 mg at bedtime
  sleep: facilitate sleep, which it did
[2]; patient three, tizanidine 1 mg raised up to 8 mg at bedtime
  sleep: able to sleep through the night
[1]
  effect on sleep (in words): impressive effect on sleep
  effect on vasomotor / hot flash symptoms (in words): very modest reduction in vasomotor symptoms
[3]
  effect on vasomotor symptoms (in words): very modest reduction in vasomotor symptoms
  effect on sleep (in words): more impressive effect on sleep
  Hot Flash Frequency: 3 (3 as 9-12/day (severe))
  Sweating: 3
  Wakings: 2 (2 moderate (5-10 wakings/night))
  Falling Asleep: 2 (2 moderate (20-40 minutes))
  Hot Flash Severity: 3 (3 severe (2-3 minutes))

## COc1ccc(C(CN(C)C)C2(O)CCCCC2)cc1 (stereo not shown) [Venlafaxine]
[2]; patient two
  hot flashes under existing medication: developed these hot flash symptoms despite those medications
[1]
  effect on vasomotor / hot flash symptoms (in words): reduced hot flash symptoms over untreated patients

## CC(C)(C#N)c1cc(Cn2cncn2)cc(C(C)(C)C#N)c1 [anastrozole]
[2]; patient three, anastrozole 1 mg daily
  effect on hot flashes (side effect of aromatase inhibitor): exacerbated the hot flashes

## O=C1CN=C(c2ccccc2Cl)c2cc([N+](=O)[O-])ccc2N1 [clonazepam]
[2]; patient three
  benefit in sleep cycle: no significant benefit in sleep cycle

## c1cnc(N2CCN(Cc3ccc4c(c3)OCO4)CC2)nc1 [piribedil]
[4]
  activity in controlling hot flashes: unique activity

## CN1C(=O)C(O)N=C(c2ccccc2)c2cc(Cl)ccc21 (stereo not shown) [temazepam]
[2]; patient three
  benefit in sleep cycle: no significant benefit in sleep cycle

## CCN(C(C)=O)c1cccc(-c2ccnc3c(C#N)cnn23)c1 [zaleplon]
[2]; patient three
  benefit in sleep cycle: no significant benefit in sleep cycle

## Cc1ccc(-c2nc3ccc(C)cn3c2CC(=O)N(C)C)cc1 [zolpidem]
[2]; patient three
  benefit in sleep cycle: no significant benefit in sleep cycle

Source: patent publication US11903926B1, “Non-hormonal treatment of hot flashes” (priority 2012, dated 2024)
